# Where two headings read alike, the source gives them in different places.
# Procedure: The substrate depletion method was used to determine half-life (t1/2) of compounds by measuring the disappearance of the parent compound over time. Incubations were performed on a Tecan EVO 200 robotic system (Morrisville, NC, USA), equipped with a 96-channel head, Inheco heating block, and controlled by EVOware software (Version 3.5). Mixed-gender human liver microsomes were purchased from Xenotech (Kansas City, KS, USA) (Catalog: H0610). Gentest NADPH Regenerating Solution A and B (Catalog: 451220/451200), Axygen reservoirs (Catalog: RES-SW384-LP/RES-SW384-HP) were purchased from Corning Inc. (Corning, NY, USA). Incubation plates (384-well, 250 µL; Catalog# 186002632) and LC/MS analysis plates (384-well, 100 µL; Catalog# 186002631) were purchased from Waters Inc. (Milford, MA, USA). […] An albendazole solution in acetonitrile (ACN/IS) was prepared for use as an internal standard. Each 110 μL reaction mixture included the test compound (1 μM), HLM (0.5 mg/mL), and NADPH regenerating system in phosphate buffer (pH 7.4). The samples were incubated in 384-well plates at 37 °C for 0, 5, 10, 15, 30, and 60 min. At each designated time point, 10 μL of the mixture was transferred to another 384-well plate containing cold ACN/IS. The plates were then centrifuged at 3000 rpm for 20 min at 4 °C, and supernatants were collected into a 384-well injection plate. Sample quantification was performed using Thermo UPLC/HRMS and data were analyzed using TraceFinder software (Version 4.1). The data were then extracted, and half-life analysis was performed using our in-house Validator software (Version 1.0) as described previously.
# [1] = mixed-gender HLM 0.5 mg/mL, test compound 1 μM, NADPH regenerating system, pH 7.4, 37 °C, 0-60 min, mean ± S.D. over 6 years, > 40 plates, t1/2 capped at 120 min
SMILES,Half-Life (t1/2) (pH 7.4) [min],Half-Life (t1/2) [1] [min]
"Cc1cc(=O)n(-c2ccccc2)n1C [Antipyrine, antipyrine]",>120,–
"O=C1CC2(CCCC2)CC(=O)N1CCCCN1CCN(c2ncccn2)CC1 [Buspirone, buspirone]",–,14.4 ± 4.1
"CC(C)NCC(O)COc1cccc2ccccc12 (stereo not drawn) [Propranolol, propranolol]",–,55.2 ± 10.1

# Reference: publication PMC11510424, “Developing Robust Human Liver Microsomal Stability Prediction Models: Leveraging Inter-Species Correlation with Rat Data” (Pharmaceutics, 2024)
